Measurements reported in the supplement of paper PMC5844555.

Tests used:
Assay in all cases: 3' UTR reporter interaction score (median-centred robust z-score of log2 firefly/Renilla activity); higher = less repression of the 3' UTR reporter
Conditions in all cases: HEK293T; 48 h
[1] = system: ZEB2
Procedure, shortened: (§1)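 Using DharmaFECT Duo, HEK293T cells (10,000/well, 96-well plates) were co-transfected with 2.5 pmol miRNA mimic, 100 ng firefly luc2P reporter containing the gene's 3' UTR and 20 ng Renilla pRL-TK control, and dual-luciferase activity was read 48 h later. The interaction score is the log firefly/Renilla ratio as a per-plate robust z-score (median, median absolute deviation), median-centred per miRNA, averaged over at least two independent screens; lower, more negative values indicate interaction.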

[2] = system: BRCA2
Procedure, shortened: as §1

[3] = system: MYT1L
Procedure, shortened: as §1

[4] = system: HRAS
Procedure, shortened: as §1

[5] = system: TP53
Procedure, shortened: as §1

[6] = system: MYCN
Procedure, shortened: as §1

[7] = system: MYC
Procedure, shortened: as §1

[8] = system: NOTCH1
Procedure, shortened: as §1

[9] = system: FBXW7
Procedure, shortened: as §1

[10] = system: RB1
Procedure, shortened: as §1

[11] = system: PHF6
Procedure, shortened: as §1

[12] = system: EZH2
Procedure, shortened: as §1

[13] = system: PHOX2B
Procedure, shortened: as §1

[14] = system: MYB
Procedure, shortened: as §1

Sequence	3' UTR reporter interaction score [1]	3' UTR reporter interaction score [2]	3' UTR reporter interaction score [3]	3' UTR reporter interaction score [4]	3' UTR reporter interaction score [5]	3' UTR reporter interaction score [6]	3' UTR reporter interaction score [7]	3' UTR reporter interaction score [8]	3' UTR reporter interaction score [9]	3' UTR reporter interaction score [10]	3' UTR reporter interaction score [11]	3' UTR reporter interaction score [12]	3' UTR reporter interaction score [13]	3' UTR reporter interaction score [14]
AACGCACUUCCCUUUAGAGUGU	0.153	0.843	1.01	-0.716	-0.139	0.243	-2.85	0.0977	0.611	1.02	-1.36	0.293	-0.209	-0.0921
UAACAGUCUACAGCCAUGGUCG	-0.631	-0.186	1	0.64	-1.07	0.783	0.473	-0.392	-0.629	-1.41	-0.351	1.32	-0.125	0.1
ACCCUAUCAAUAUUGUCUCUGC	0.936	-0.211	-0.388	-0.283	-0.169	0.109	0.123	-0.0515	0.326	-0.979	0.779	-0.658	-0.0439	0.329
ACUAGACUGAAGCUCCUUGAGG	-0.765	0.363	0.327	0.196	0.442	0.903	0.201	-0.733	-1.12	1.2	-0.216	0.526	-2.05	0.78
UGGUAGACUAUGGAACGUA	0.356	-0.722	0.0286	-0.461	-0.283	0.966	-0.304	0.639	0.552	1.85	-0.619	-0.991	-0.373	0.96
UGGUGCGGAGAGGGCCCACAGUG	0.607	-0.582	1.6	-0.688	-0.894	0.131	-0.919	0.612	0.508	0.451	0.575	-0.738	0.217	-0.475
CUGUGCGUGUGACAGCGGCUGA	2.18	-0.102	-2.16	-0.943	0.618	0.24	-0.0999	0.0936	0.121	1.29	0.722	-0.315	-2.14	1.02
AUCGGGAAUGUCGUGUCCGCC	0.211	0.225	-0.0689	0.0629	0.313	-0.166	-1.57	-0.49	0.361	-0.355	1.55	-0.604	0.773	-0.74
UCCGAGCCUGGGUCUCCCUCU	-0.318	0.0314	1.66	-0.0807	0.107	-0.731	-0.43	0.141	0.832	0.559	-0.194	0.213	1.22	-0.402
GAACGCCUGUUCUUGCCAGGUGG	0.419	1.57	-0.992	0.54	-0.416	-0.325	0.431	0.125	-1.79	0.00732	-1.24	1.05	-0.674	0.0781
GAUUGCUCUGCGUGCGGAAUCGAC	-0.205	0.00588	-1.1	-0.851	-0.352	-0.19	-2.18	-0.0878	-0.34	0.524	0.0123	0.471	0.972	-0.474
GUCAUACACGGCUCUCCUCUCU	0.639	0.502	-0.904	0.779	-0.0395	-1.89	0.275	0.867	-0.585	-0.0565	-2.04	-0.733	-0.585	0.607
CAACGGAAUCCCAAAAGCAGCU	0.375	-0.135	-1.32	0.275	-0.924	-0.12	0.282	0.629	-0.229	0.747	-0.143	0.561	-0.397	-0.0583
UGACAACUAUGGAUGAGCUCU	0.125	-0.499	0.836	-0.056	0.025	0.478	0.174	-0.339	0.175	-2.61	-0.469	0.197	-0.766	0.977
CUCUAGAGGGAAGCACUUUCUCU	-0.685	-0.0386	0.381	1.4	-0.432	-0.181	0.549	0.176	-2.17	-0.223	-0.193	-0.139	-2.05	2.18
GAAGUGCUUCGAUUUUGGGGUGU	0.378	0.244	-0.424	0.659	-1.53	0.643	0.42	0.231	-0.253	2.22	0.808	-0.43	0.548	0.012
ACUUGUAUGCUAGCUCAGGUAG	0.0953	0.171	0.252	0.169	-0.611	-0.194	0.231	-2.55	0.132	0.468	0.16	0.301	0.171	-0.993
AUGCACCUGGGCAAGGAUUCUG	-2.03	1.42	1.1	0.134	-0.0328	-0.703	1.46	0.738	-4.97	-0.483	-1.61	2.23	-3.43	0.3
UUGAGAAUGAUGAAUCAUUAGG	-0.412	0.13	-0.0444	1.09	0.335	-0.554	0.0578	0.0298	-0.3	-0.111	-1.78	-0.195	-0.12	0.0167

Sequence	3' UTR reporter interaction score [1]	3' UTR reporter interaction score [2]	3' UTR reporter interaction score [3]	3' UTR reporter interaction score [4]	3' UTR reporter interaction score [5]	3' UTR reporter interaction score [6]	3' UTR reporter interaction score [7]	3' UTR reporter interaction score [8]	3' UTR reporter interaction score [9]	3' UTR reporter interaction score [10]	3' UTR reporter interaction score [11]	3' UTR reporter interaction score [12]	3' UTR reporter interaction score [13]	3' UTR reporter interaction score [14]
UGGAAUGUAAGGAAGUGUGUGG	2.54	-0.366	0.351	0.0317	-1.12	-2.18	0.26	-0.967	-0.356	1.33	2.43	0.341	0.446	-0.696
AUCAUAGAGGAAAAUCCACGU	-0.144	0.121	0.0345	-1.11	0.405	0.335	-0.578	0.241	0.0331	-0.168	0.424	0.733	0.628	-0.185
AAACUACUGAAAAUCAAAGAU	-1.71	0.536	-0.7	-0.566	0.261	-0.411	0.0375	-0.667	-0.0213	0.321	0.0968	-0.0901	-0.331	0.63
UGAGCUAAAUGUGUGCUGGGA	0.263	-0.453	1.13	-0.575	0.237	0.0799	-0.176	-0.446	-0.406	-0.0745	-0.0551	0.105	0.175	0.373
UUCCCUUUGUCAUCCUUCGCCU	-0.675	0.539	-0.268	-0.327	-0.355	0.0207	-0.168	-0.19	-1.31	0.903	0.344	0.0327	-4.93	0.781
CAUCCCUUGCAUGGUGGAGGGU	-1.03	-0.755	-1.78	-0.474	0.105	1.03	0.286	0.0724	-2.06	-1.51	-0.203	0.459	-0.0949	0.193
UGGAAUGUAAAGAAGUAUGUA	0.551	0.327	-0.17	1.1	-1.46	-0.505	0.479	-0.912	-2.71	0.684	0.925	-0.314	0.106	0.679
UCUAGUAAGAGUGGCAGUCG	0.627	0.0816	-0.214	-0.21	0.771	-0.229	-0.209	0.0614	1.23	-1.19	0.233	-0.108	1.81	0.506
GUUGUGUCAGUUUAUCAAAC	-0.154	-0.269	-0.86	0.822	0.224	0.0505	0.0323	-0.822	-0.0228	-1.51	-1.91	0.353	-0.364	0.442
CAAAGCGCUCCCCUUUAGAGGU	1.31	-0.715	-0.44	1.33	-0.173	-0.228	0.756	-0.101	-0.27	-1.27	1.12	0.467	0.264	-0.147
AAUUGCACUUUAGCAAUGGUGA	-2.8	1.07	0.317	-0.0471	-1.5	0.969	0.3	-0.161	-4.25	1.39	2.86	-0.64	0.339	-0.332
AGUUAAUGAAUCCUGGAAAGU	0.251	-0.407	-0.25	-0.441	-0.194	0.0474	0.0217	-0.406	0.0665	-0.487	-0.54	-0.175	-0.662	0.47
AACAUUCAUUGUUGUCGGUGGGUU	1.49	-0.763	1.2	-0.818	-1.07	-0.95	-0.122	0.549	0.226	0.277	0.446	-0.453	0.761	0.819
GCUGCGCUUGGAUUUCGUCCCC	0.715	-0.029	0.46	-0.573	-0.861	0.248	0.388	2.01	-0.688	1.16	0.794	-0.09	-1.97	0.616
AGCAGCAUUGUACAGGGCUAUGA	0.465	0.461	-1.07	-0.255	0.727	0.0597	1.13	-0.182	-0.997	-1.15	2.88	-0.463	1.07	-1.03
AGCUACAUUGUCUGCUGGGUUUC	-0.124	-0.328	-0.38	0.0503	0.277	0.451	0.427	0.703	1.22	-3.13	-0.314	0.0119	0.602	-4.52
UUUUUGCGAUGUGUUCCUAAUA	-2.41	0.151	0.157	0.633	0.414	-0.818	0.66	0.568	-2.28	-2.29	0.21	1.27	0.492	0.165
CGCAUCCCCUAGGGCAUUGGUGU	-0.392	0.625	-3.16	1.06	0.263	-0.239	0.19	-1.34	-0.0954	-0.799	-0.956	0.639	0.221	-0.38
GCGACCCACUCUUGGUUUCCA	-0.694	-0.537	-0.645	-0.85	0.384	0.0444	-0.5	0.563	0.92	-2.3	-1.86	0.786	0.84	0.396
